US7241733B2, “Mammalian EPO mimetic CH1 deleted mimetibodies, compositions, methods and uses” (Centocor, Inc., priority 2003, dated 2007)
“Also recorded” adds a separate entry of the source.

Tests used:
[1] = 50% serum; cited from earlier work
[2] = serum concentrations measured by ELISA in normal mice; assay type: in vivo
Description: (§1) In vivo studies were done in normal mice to compare the half-life of EMP-NfusCG1 to that of rHuEPO and to compare their effects on erythropoiesis. […] Also seen in preliminary studies, when rHuEPO was dosed at 2000 U/kg the hematocrit of the mice was maximally elevated on day 4 and fell back to near baseline levels by day 7. […] The difference in molecular weights was also taken into consideration (rHuEPO=30,400 daltons, EMP-NfusCG1=62,200 daltons).
The serum concentrations of both rHuEPO and EMP-NfusCG1 were measured by ELISA. […] This is consistent with the expected 2 to 8 hour half-life of rHuEPO in rodents. (PRI Expert Report, Part IC2: Toxico-Pharmacological Documentation). In contrast, levels of EMP-NfusCG1 as high as 1.5 ug/mL were detected on day 4 and remained high through the end of the study. The linearity of the clearance profile in FIG. 6 is unusual. It may be that, since the first time point was 3 days after the last injection, the maximum concentration (Cmax) was reached before the first sample was taken and therefore the peak of the exponential curve was not observed. Another explanation is that the absorption and elimination profiles of this novel construct are such that the clearance profile appears linear.

[3] = tested on: cells that express the EPO receptor; assay: complement lysis of cells that express the EPO receptor; assay type: cell-based; conditions: preliminary studies
Description: It has been shown that mutation of two […] (L) residues, L234 & L235, in the IgG1 lower hinge region to alanine (A) will abrogate the ability of the immunoglobulin to mediate complement dependent cytotoxicity (CDC) and antibody dependant cellular cytotoxicity (ADCC) (Hezereh et al., 2001, J. Virol., vol. 75 (24), 12161-68). […] This may be due to the low number of receptors that are found on erythroid progenitor cells. In addition the in vivo expansion of erythriod progenitors as evidenced by significant increases in hematocrit supports the possible functional irrelevance of immune effector functions. However, while no effector function associated affects have been observed, there remains an interest in introducing these mutations as a precautionary step.

normal mice = assay: in vivo erythropoiesis (hematocrit) in normal mice; conditions: equal activity units
Description: as §1

[4] = tested on: EPO dependent UT-7/EPO cell line; assay: in vitro bioactivity assay: UT-7/EPO cell viability after rHuEPO withdrawal (MTS); assay type: cell-based, human
Description: The activity of EMP-NfusCG1 was first tested in an in vitro bioactivity assay. For this assay, the EPO dependent UT-7/EPO cell line, derived from a patient with acute megakaryoblastic leukemia, was used (Komatsu et al., 1993, Blood, vol. 82 (2), 456-464). These cells undergo programmed cell death 48 to 72 hours after withdraw from media supplemented with rHuEPO. Cells that have been incubated in the absence of rHuEPO for 24 hours can be saved if treated with rHuEPO or an EPO agonist. EMP-NfusCG1 was added to cells starved without rHuEPO and cell viability was determined 48 hours after treatment using the tetrazolium compound MTS (CellTiter 96 Aqueous One Solution, Promega) that is metabolized by living cells to yield a product with an absorbance that can be measured. […] In addition, these same cells were stimulated with EMP-NfusCG1 and tyrosine phosphorylation patterns visualized by running cell lysate through a polyacrylamide gel.

EMP-1: 20 amino acid peptide with no sequence homology to HuEPO, able (as a dimer) to activate the EPO receptor (GGTYSCHFGPLTWVCKPQGG)
ex-vivo half-life [1]: 8 h

EMP-NfusCG1: EMP-1 peptide, two Gly-Gly-Gly-Ser repeats, human J region, IgG1 hinge, CH2 and CH3; SEQ ID NO:50
serum level detected on day 4 ([2]; day 4, ELISA): ≤ 1.5 µg/mL
approximate half-life ([2]; normal mice, calculated from serum clearance profile): ~10.8 days
complement lysis of cells that express the EPO receptor [3]: does not mediate complement lysis
duration of hematocrit response compared to rHuEPO (normal mice): elevated levels are maintained for a longer period; also recorded: prolonged
maximal hematocrit response compared to rHuEPO (normal mice): significantly higher maximal hematocrit; also recorded: higher maximal response

EMP-NfusCG4: identical to EMP-NfusCG1 except that the hinge and constant regions are of the G4 subtype; SEQ ID NO:51
EC50 ([4]; average): 0.35 nM
potency relative to EMP-NfusCG1 (fold less), on average ([4]; average of assays): about 10 fold
expected difference to rHuEPO ([4]; worked out from 10 fold vs EMP-NfusCG1 and 5 fold vs rHuEPO): about 50 fold
